Measurements reported in US8637544B2, “Neurite formation promoter” (Senju Pharmaceutical Co., Ltd., priority 2007, dated 2014).

Experiments:
[1] = test system: rabbit retinal nerve cells; assay: Promoting effect on neuritogenesis in rabbit retinal cells (Test Example 2); type: cell-based; details: 0.1 nM (0.026 ng/mL), 48 h culture after addition; FIG. 2
Procedure: (§1) Japanese White rabbits (4 days old, male) purchased from Oriental Yeast Co., Ltd. were used.
A rabbit underwent cardiac perfusion with physiological saline under anesthesia with pentobarbital sodium injection (Dainippon Sumitomo Pharma), after which the eyeballs were extirpated and the retinas were isolated. The retinas isolated were placed in a papain solution (1 mg/mL, Sigma-Aldrich Japan K.K.) suspended in Hanks' balanced salt solution (HBSS, Invitrogen), and subjected to enzymatic digestion at 37° C. for 30 minutes. Thereafter, Leibovitz's L-15 Medium (L-15, Invitrogen) was used to prepare reagents. After the suspension was allowed to stand, the supernatant was discarded, 3 mL of a trypsin inhibitor solution (2 mg/mL trypsin inhibitor, 0.004% DNase and 1 mg/mL Bovine Serum Albumin dissolved in L-15, pH 7.4) was added, and pipetting was performed. After the solution was allowed to stand, the supernatant was discarded, another 3 mL of the trypsin inhibitor solution was added, pipetting was performed, and this operation was once again repeated; centrifugation was performed at 120×g for 5 minutes, and the supernatant was removed. […]

[2] = test system: cultured rabbit trigeminal nerve cells; assay: Promoting effect on neuritogenesis in cultured rabbit trigeminal nerve cells, concentration series (Test Example 3); type: cell-based; details: for Ratio (%) of neuritogenesis cells: 48 h, mean±SD, control 30.4 ± 19.5
Source text: as §1
Rabbit trigeminal nerve cells were isolated according to the report by Chan et al. (Kwan Y. Chan and Richard H. Haschke. Exp. Eye Res. 41: 687-699, 1985). Specifically, a rabbit underwent cardiac perfusion with physiological saline under anesthesia with pentobarbital sodium injection (Dainippon Sumitomo Pharma), after which the trigeminal ganglia were cut out. The trigeminal ganglia cut out were washed with Hanks' balanced salt solution (HBSS, Invitrogen), and thereafter treated with 300 μg/mL collagenase-dispase (Roche) at 37° C. for 40 minutes; centrifugation was performed at 120×g for 5 minutes, and the cells were collected. The enzyme reaction was stopped with Neurobasal (registered trademark, Invitrogen) supplemented with EDTA at a final concentration of 0.1%, and the cells were suspended in culture medium, after which centrifugation was performed at 120×g for 5 minutes, and trigeminal nerve cells were prepared.
The cells prepared were seeded in a 8-well chamber slide coated with polylysine/laminin (Falcon) at about 3×10^3 cells/well; after the seeding, the cells were cultured for 24 hours. After the 24 hours, each of Compound A (final concentration: 0.001 nM (0.00026 ng/mL), 0.1 nM (0.026 ng/ml), 10 nM (2.6 ng/mL), 1000 nM (260 ng/mL)) and NGF (final concentration 1 μg/ml) as a positive control or PBS as a control, was added to the culture medium. After the addition, the cells were further cultured for 48 hours.
The culture medium used was a Neurobasal containing the B27 supplement (Invitrogen) (final concentration 2% (v/v)), L-glutamine (Invitrogen) (final concentration 1 mM) and cytosine-1-β-D(+)arabinofuranoside (final concentration 10 μM). Culturing conditions were set at a carbon dioxide concentration of 5%, an air concentration of 95%, a humidity of 100%, and a temperature of 37° C.
(§2) After the 48 hours of cultivation, the rabbit trigeminal nerve cells were immersed and fixed in 10% neutrally buffered formaldehyde solution at room temperature for 20 minutes. The specimens fixed were fluorescently stained using the anti-neurofilament 200 antibody (Sigma-Aldrich), which specifically recognizes neurofilaments constituting nerve cell bodies and neurites, and the cells stained were examined under a fluorescence microscope (Olympus). Stained cells were incorporated as images from the fluorescence microscope into a computer.
To evaluate the degree of neuritogenesis in the cultured rabbit trigeminal nerve cells, cell body diameters and neurite lengths were measured on the computer-captured stained cell images using image analysis software (Image-Pro Plus Ver. 4.5.1, Media Cybernetics). Cells having a neurite with a length of not less than twice the diameter of the cell body were regarded as neuritogenesis cells, and the ratio (%) of the cells to the total cell count was calculated (Otori Y, Wei J Y, Barnstable C J. Invest. Opthalmol V is Sci (1998) 39, 972-981).

[3] = test system: corneal sensitivity after corneal flap creation; assay: Improving effect on rabbit corneal hyposensitivity after corneal flap creation (Test Example 4); type: in vivo; details: 1 nM ophthalmic solution, instillation 50 μL four times a day for 6 weeks
Procedure: Japanese White rabbits weighing 2.5 to 3.0 kg purchased from KITAYAMA LABES were used. From arrival to the day of test completion, the animals were kept in a breeding room set at a room temperature of 23±3° C., a humidity of 55±10%, and 12-hour lighting (lighted on at 8:00, lighted off at 20:00) at one animal per cage. Each animal was fed up to 100 to 120 g of a solid food (Labo R Stock, Nosan Corporation) a day, and had free access to tap water.
Compound A was used as a test substance. The test substance was dissolved in the base shown below to obtain a concentration of 1 nM (0.00000026%) to yield an ophthalmic solution. For a control group, the following base, free of the test substance, was administered by instillation.
3. Test Procedures 1) Grouping
On the day before flap creation, the animals were macroscopically examined for the ocular surface and examined for fluorescein-stained spots in the cornea; rabbits with no abnormalities observed therein were selected, and initial values of corneal sensitivity were measured using the Cochet-Bonnet aesthesiometer (manufactured by Luneau). […]
One week, 2 weeks, 4 weeks or 6 weeks after surgery, corneal sensitivity was measured using the Cochet-Bonnet aesthesiometer. […]

[4] = test system: cultured rabbit trigeminal nerve cells; assay: Promoting effect on neuritogenesis in cultured rabbit trigeminal nerve cells (Test Example 1); type: cell-based; details: 0.1 nM (0.026 ng/mL), 48 h culture after addition; mean±SD, N=5; control 29.5±8.7%
Source text: as §1
N-(1-acetylpiperidin-4-yl)-4-fluorobenzamide (hereinafter referred to as Compound A) was used.
Rabbit trigeminal nerve cells were isolated according to the report of Chan et al. (Kwan Y. Chan and Richard H. Haschke. Exp. Eye Res. 41: 687-699, 1985). Specifically, a rabbit underwent cardiac perfusion with physiological saline under anesthesia with pentobarbital sodium injection (Dainippon Sumitomo Pharma), after which the trigeminal ganglia thereof were cut out. […]
as §2, with “of cultivation following the addition,” for “of cultivation,”, “Stained cell” for “Stained cells”
To evaluate the degree of neuritogenesis in the cultured rabbit trigeminal nerve cells, cell body diameters and neurite lengths were measured on the computer-captured stained cell images using image analysis software (Image-Pro Plus Ver. 4.5.1, Media Cybernetics). […]

Structure (SMILES): CC(=O)N1CCC(NC(=O)c2ccc(F)cc2)CC1 [Compound A, N-(1-acetylpiperidin-4-yl)-4-fluorobenzamide]
- neuritogenesis in retinal nerve cells stained with anti-neurofilament antibody [1]: Remarkable neuritogenesis was observed
- Ratio (%) of neuritogenesis cells ([2]; 0.001 nM): 33.6 ± 16.3%
- Ratio (%) of neuritogenesis cells ([2]; 0.1 nM, *p<0.05 vs control): 45.9 ± 15.1* %
- Ratio (%) of neuritogenesis cells ([2]; 10 nM): 37.2 ± 16.5%
- Ratio (%) of neuritogenesis cells ([2]; 1000 nM): 37.0 ± 20.0%
- optimum concentration for promoting effect on neuritogenesis in trigeminal nerve cells ([2]; tested at 0.001, 0.1, 10, 1000 nM): 0.1 nM
- time when a sense was observed for the first time after corneal flap creation (first measured value of 5 mm filament length or more) ([3]; average, vehicle group 5.5 weeks): 4.1 weeks
- recovery from decreased corneal sensitivity after flap creation (Cochet-Bonnet aesthesiometer) ([3]; versus vehicle instillation group, FIG. 3): accelerated recovery from decreased corneal sensitivity after flap creation
- ratio of neuritogenesis cells to all cells [4]: 63.3±5.2%
